Measurements reported in paper PMC11948903, “Exploring the synergy between fungal CE15 glucuronoyl esterases and xylanases for lignocellulose saccharification” (Biotechnology for Biofuels and Bioproducts, 2025).

What was measured:
AeGE15 = tested on: T1, AeGE15; assay: HPLC of released cinnamyl alcohol (UV […] nm), Michaelis-Menten fit; assay type: biochemical, Artolenzites elegans; details: 50 °C, pH 5; substrate 0.2–5.0 mM; read-out: Kinetic parameters / KM
T1 construct: gene aege; mature protein with N-terminal CBM1 and CE15 domain; native signal peptide (21 of 471 residues) removed; alpha-factor secretion signal, C-terminal His6 tag kept; Pichia pastoris X33

TlGE15 = tested on: T2, TlGE15; assay: as above; assay type: biochemical, Trametes ljubarskyi; details: 40 °C, pH 5; substrate 0.2–5.0 mM; read-out: Kinetic parameters / KM
T2 construct: gene tlge; mature protein with N-terminal CBM1 and CE15 domain; native signal peptide (21 of 474 residues) removed; alpha-factor secretion signal, C-terminal His6 tag kept; Pichia pastoris X33

- Km (AeGE15): 3.6 ± 0.6 mM
- Km (TlGE15): 3.2 ± 0.5 mM
Structure (SMILES): O=C(OC/C=C/c1ccccc1)[C@H]1OC(O)[C@H](O)[C@@H](O)[C@@H]1O (stereo partly drawn) [trans−3-phenyl-2-propen-1-yl D-glucopyranosyluronate]
